Values after ≈ are worked out from the molar mass of the structure shown. “Also recorded” adds a separate entry of the source.
How the values were obtained:
ANIT-induced cholestasis [1] = test: Chronic treatment rat ANIT model of cholestasis, serum markers; assay type: in vivo; conditions: oral dosing 0.01 to 3 mg/kg
Protocol: Rats were treated with alpha-naphthyl-isothiocyanate (ANIT) (0.1% w/w) in food for 3 days prior to treatment with the compound at the indicated doses or with vehicle control (“Veh”). A non-cholestatic control group was fed standard chow diet without ANIT, and serve as the non-cholestatic control animals (“Control”), After […] days of oral dosing, the indicated analyte was measured in serum. LLQ, lower limit of quantitation. Mean±SEM; n=5.

ANIT-induced cholestasis [2] = test: PK/PD modeling of effective exposure in rat ANIT chronic treatment model; assay type: in vivo; conditions: drug concentration producing 80% of maximum effect
Protocol: Male Wistar rats were treated with ANIT (0.1% ANIT in chow diet) for 2 weeks. […] The serum samples were collected on day 14 for analysis of biomarkers of hepatobiliary injury (including ALT, AST, bilirubin and bile acids). The PK samples (pre-dose, 0.5, 1, 3, 7, 10 and 24 h, n=3/dose group) were taken on day 13 (at steady-state). AUC0-24 h was determined using Phoenix WinNonlin 6.3 software and the average concentrations were calculated from mean of AUC0-24 h at each dose (divided the AUC0-24 h by 24 h). The mean biomarker data were compared to the PK data (average concentration at each dose) for the modeling. The IC80 was determined using the Inhibitory effect Imax model (effect C=0 at Imax, C=infinity at E0) built in Phoenix WinNonlin 6.3 software. […] Therefore, we chose to use a mean of the IC80 for the four biomarkers (total bilirubin, total bile acids, ALT and AST) as the IC80 for efficacy in this model. […]
The PK samples (pre-dose, 0.5, 1, 3, 7, 10 and 24 h, n=3/dose group) were taken on day 13 (at steady-state). AUC0-24 h was determined using Phoenix WinNonlin 6.3 software and the average concentrations were calculated from mean of AUC0-24 h at each dose (divided the AUC0-24 h by 24 h). […] The IC80 was determined using the Inhibitory effect Imax model (effect C=0 at Imax, C=infinity at E0) built in Phoenix WinNonlin 6.3 software.

[3] = Single oral dose plasma pharmacokinetics in healthy subjects; assay type: in vivo; conditions: dose range 10 μg to 3000 μg, human
[4] = Multiple oral dose plasma pharmacokinetics in healthy subjects; assay type: in vivo; conditions: human
[5] = Food effect (high-fat meal vs fasted) on pharmacokinetics; assay type: in vivo; conditions: human
Protocol: To avoid variability in drug exposure, it is recommended that throughout the treatment period, patients will be directed to take study drug at home with ˜240 mL (8 ounces) of water in the morning in a fasting state, at least 30 min prior to the first beverage apart from water and 60 min prior to first meal of the day, preferably at the same time of the day.

[6] = Safety and tolerability in healthy subjects; assay type: in vivo, human; conditions: repeated daily 100 μg; one ALT>ULN, one ALT>3×ULN, one ALT>5×ULN
[7] = Estimation of human efficacious dose from rat efficacious exposure and human PK; conditions: human, plasma, oral, 6 μg; estimated, molar
Protocol: The human efficacy dose was calculated based on the efficacious exposure in the rat ANIT-induced disease model. Since the in vitro potency and protein binding between human and rat were similar, the EC80 exposure in human was assumed to be the same as that in rat (3.05 ng*h/mL),

FGF19 = conditions: single and repeated dosing, human
FXR = target: T1, FXR (Homo sapiens, UniProt Q96RI1); conditions: clinical studies in PBC or NASH subjects; cited from earlier work
T1 construct: OCA was tested at doses between 5 mg and 50 mg in PBC subjects or NASH subjects; host or cells: human subjects (PBC, NASH), endogenous receptor
T1 sequence (Q96RI1 1-486): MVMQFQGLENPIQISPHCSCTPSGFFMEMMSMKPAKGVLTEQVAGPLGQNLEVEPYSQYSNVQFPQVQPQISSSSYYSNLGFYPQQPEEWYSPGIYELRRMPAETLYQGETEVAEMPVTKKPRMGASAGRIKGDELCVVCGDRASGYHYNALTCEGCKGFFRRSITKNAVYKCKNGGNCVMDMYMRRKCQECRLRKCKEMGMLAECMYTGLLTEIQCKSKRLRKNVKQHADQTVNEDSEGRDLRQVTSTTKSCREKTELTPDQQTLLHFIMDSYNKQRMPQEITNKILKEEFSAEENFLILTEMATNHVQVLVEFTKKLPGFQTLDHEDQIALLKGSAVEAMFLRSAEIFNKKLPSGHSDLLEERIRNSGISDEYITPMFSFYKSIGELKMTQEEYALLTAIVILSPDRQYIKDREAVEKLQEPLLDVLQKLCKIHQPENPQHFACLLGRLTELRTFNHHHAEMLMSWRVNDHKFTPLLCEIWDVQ

Row | Structure (SMILES) | dose from which hepatobiliary injury indicators (AST, ALT, bilirubin, bile acids) improved (ANIT-induced cholestasis [1]) [mg/kg] | IC80, total bilirubin (ANIT-induced cholestasis [2]) [ng/mL] | dose dependence of mean Cmax and AUCinf [3] | dose dependence of Cmax and AUC (AUCtau/AUCinf), plasma exposure ([4]; multiple once daily doses, dose range 10 μg to 100 μg) | day by which steady-state was reached ([4]; once daily oral dosing 10-100 μg, trough levels) [days] | median Tmax, fasted state ([5]; fasted comparator of food effect) [h] | increase of mean AUCinf with high-fat meal compared to the fasted state [5] | increase of mean Cmax with high-fat meal compared to the fasted state [5] | subjects with elevation of transaminases (ALT and AST) [6] [subjects] | Cmax [7] [nM] | FGF19 response to dose (FGF19) | side effect associated with treatment (FXR)
1 | O=C(O)c1cc(F)c2nc(N3C4CC[C@H]3CC(OCc3c(-c5ccccc5OC(F)(F)F)noc3C3CC3)C4)sc2c1 (stereo partly drawn) [Compound A, 2-[(1R,3r,5S)-3-({5-cyclopropyl-3-[2-(trifluoromethoxy)phenyl]-1,2-oxazol-4-yl}methoxy)-8-azabicyclo[3.2.1]octan-8-yl]-4-fluoro-1,3-benzothiazole-S-carboxylic acid] | 0.01 | 0.223 (≈ 0.369 nM) | approximately dose proportional increase | approximately dose-proportional increase; also recorded: approximately dose proportional increase | ≤ 4 | 4 | approximately 60% | approximately 60% | 3 | ~0.3 | dose-dependent increases in FGF19 | 
2 | CC[C@H]1[C@@H](O)[C@@H]2[C@H](CC[C@]3(C)[C@@H]([C@H](C)CCC(=O)O)CC[C@@H]23)[C@@]2(C)CC[C@@H](O)C[C@@H]12 [OCA, 6α-ethyl-chenodeoxycholic acid] |  |  |  |  |  |  |  |  |  |  |  | increased pruritus
